Data from ChEMBL document CHEMBL4270512, “Harnessing pyrrolidine iminosugars into dimeric structures for the rapid discovery of divalent glycosidase inhibitors” (Eur J Med Chem, 2018).
Activity calls are given as the source filed them. The rule behind the calls is not given here.

How the values were obtained:
Bos taurus [1] = species: Bos taurus; assay: Inhibition of bovine kidney alpha-fucosidase at 5 uM using p-nitrophenyl glycopyranoside as substrate preincubated for 5 mins followed by substrate addition and measured after 20 mins by visible absorption spectroscopic analysis relative to control
[2] = biological target: T1, Beta-galactosidase (Bos taurus) (UniProt Q58D55); assay: Inhibition of bovine liver beta-galactosidase at 0.1 mM using p-nitrophenyl glycopyranoside as substrate preincubated for 5 mins followed by substrate addition and measured after 20 mins by visible absorption spectroscopic analysis
T1 sequence (whole entry): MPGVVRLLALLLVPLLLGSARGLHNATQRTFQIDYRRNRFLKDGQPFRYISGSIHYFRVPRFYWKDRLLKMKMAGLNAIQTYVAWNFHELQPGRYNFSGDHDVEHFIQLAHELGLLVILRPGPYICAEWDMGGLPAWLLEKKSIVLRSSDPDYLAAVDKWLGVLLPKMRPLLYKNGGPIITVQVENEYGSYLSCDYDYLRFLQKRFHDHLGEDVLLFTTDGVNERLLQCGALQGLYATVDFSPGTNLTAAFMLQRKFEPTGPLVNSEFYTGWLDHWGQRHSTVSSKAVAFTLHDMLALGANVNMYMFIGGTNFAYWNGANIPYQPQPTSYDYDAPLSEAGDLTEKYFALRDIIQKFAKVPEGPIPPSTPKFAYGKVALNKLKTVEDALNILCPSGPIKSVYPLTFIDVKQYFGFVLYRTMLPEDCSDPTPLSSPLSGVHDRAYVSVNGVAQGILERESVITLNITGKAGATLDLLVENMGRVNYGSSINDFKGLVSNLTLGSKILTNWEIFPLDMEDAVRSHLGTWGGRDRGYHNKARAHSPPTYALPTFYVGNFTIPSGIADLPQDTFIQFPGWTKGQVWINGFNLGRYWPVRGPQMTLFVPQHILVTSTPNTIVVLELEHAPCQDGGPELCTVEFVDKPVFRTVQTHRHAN

[3] = biological target: Alpha-galactosidase (Coffea arabica) (UniProt Q42656); assay: Inhibition of coffee beans alpha-galactosidase at 0.1 mM using p-nitrophenyl glycopyranoside as substrate preincubated for 5 mins followed by substrate addition and measured after 20 mins by visible absorption spectroscopic analysis
Alpha-galactosidase (Coffea arabica), sequence (Q42656 16-378 limits assumed): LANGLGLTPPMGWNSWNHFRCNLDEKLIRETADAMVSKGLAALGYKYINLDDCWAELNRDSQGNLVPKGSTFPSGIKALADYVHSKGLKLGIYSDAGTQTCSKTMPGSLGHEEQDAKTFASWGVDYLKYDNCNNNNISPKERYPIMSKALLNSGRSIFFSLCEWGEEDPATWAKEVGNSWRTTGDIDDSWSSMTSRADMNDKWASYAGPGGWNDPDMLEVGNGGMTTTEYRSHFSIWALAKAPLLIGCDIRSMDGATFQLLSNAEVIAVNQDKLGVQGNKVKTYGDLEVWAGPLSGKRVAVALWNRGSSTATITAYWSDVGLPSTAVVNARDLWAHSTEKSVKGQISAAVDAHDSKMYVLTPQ

Saccharomyces cerevisiae = assay: Inhibition of Saccharomyces cerevisiae alpha-glucosidase at 0.1 mM using p-nitrophenyl glycopyranoside as substrate preincubated for 5 mins followed by substrate addition and measured after 20 mins by visible absorption spectroscopic analysis
Aspergillus niger = assay: Inhibition of Aspergillus niger amyloglucosidase at 0.1 mM using p-nitrophenyl glycopyranoside as substrate preincubated for 5 mins followed by substrate addition and measured after 20 mins by visible absorption spectroscopic analysis
Canavalia ensiformis = assay: Inhibition of jack beans beta-N-acetylglucosaminidase at 0.1 mM using p-nitrophenyl glycopyranoside as substrate preincubated for 5 mins followed by substrate addition and measured after 20 mins by visible absorption spectroscopic analysis
[4] = Uncompetitive inhibition of bovine kidney alpha-fucosidase using p-nitrophenyl glycopyranoside as substrate preincubated for 5 mins followed by substrate addition and measured after 20 mins by Cornish-Bowden plot analysis; parameters: species or system Bos taurus
[5] = Uncompetitive inhibition of human alpha-fucosidase using p-nitrophenyl glycopyranoside as substrate preincubated for 5 mins followed by substrate addition and measured after 20 mins by Cornish-Bowden plot analysis
[6] = Competitive inhibition of bovine kidney alpha-fucosidase using p-nitrophenyl glycopyranoside as substrate preincubated for 5 mins followed by substrate addition and measured after 20 mins by Dixon plot analysis; parameters: species or system Bos taurus
[7] = Inhibition of human alpha-fucosidase using p-nitrophenyl glycopyranoside as substrate preincubated for 5 mins followed by substrate addition and measured after 20 mins by visible absorption spectroscopic analysis
[8] = Competitive inhibition of human alpha-fucosidase using p-nitrophenyl glycopyranoside as substrate preincubated for 5 mins followed by substrate addition and measured after 20 mins by Dixon plot analysis
Bos taurus [9] = species: Bos taurus; assay: Inhibition of bovine kidney alpha-fucosidase at 0.120 uM using p-nitrophenyl glycopyranoside as substrate preincubated for 5 mins followed by substrate addition and measured after 20 mins by visible absorption spectroscopic analysis relative to control
Cornu aspersum = assay: Inhibition of snail beta-mannosidase at 0.1 mM using p-nitrophenyl glycopyranoside as substrate preincubated for 5 mins followed by substrate addition and measured after 20 mins by visible absorption spectroscopic analysis
[10] = Inhibition of bovine kidney alpha-fucosidase using p-nitrophenyl glycopyranoside as substrate preincubated for 5 mins followed by substrate addition and measured after 20 mins by visible absorption spectroscopic analysis; parameters: species or system Bos taurus
Prunus dulcis = assay: Inhibition of almond beta-glucosidase at 0.1 mM using p-nitrophenyl glycopyranoside as substrate preincubated for 5 mins followed by substrate addition and measured after 20 mins by visible absorption spectroscopic analysis
[11] = biological target: T2, Alpha-mannosidase (Canavalia ensiformis) (UniProt C0HJB3); assay: Inhibition of jack beans alpha-mannosidase at 0.1 mM using p-nitrophenyl glycopyranoside as substrate preincubated for 5 mins followed by substrate addition and measured after 20 mins by visible absorption spectroscopic analysis
T2 sequence (whole entry): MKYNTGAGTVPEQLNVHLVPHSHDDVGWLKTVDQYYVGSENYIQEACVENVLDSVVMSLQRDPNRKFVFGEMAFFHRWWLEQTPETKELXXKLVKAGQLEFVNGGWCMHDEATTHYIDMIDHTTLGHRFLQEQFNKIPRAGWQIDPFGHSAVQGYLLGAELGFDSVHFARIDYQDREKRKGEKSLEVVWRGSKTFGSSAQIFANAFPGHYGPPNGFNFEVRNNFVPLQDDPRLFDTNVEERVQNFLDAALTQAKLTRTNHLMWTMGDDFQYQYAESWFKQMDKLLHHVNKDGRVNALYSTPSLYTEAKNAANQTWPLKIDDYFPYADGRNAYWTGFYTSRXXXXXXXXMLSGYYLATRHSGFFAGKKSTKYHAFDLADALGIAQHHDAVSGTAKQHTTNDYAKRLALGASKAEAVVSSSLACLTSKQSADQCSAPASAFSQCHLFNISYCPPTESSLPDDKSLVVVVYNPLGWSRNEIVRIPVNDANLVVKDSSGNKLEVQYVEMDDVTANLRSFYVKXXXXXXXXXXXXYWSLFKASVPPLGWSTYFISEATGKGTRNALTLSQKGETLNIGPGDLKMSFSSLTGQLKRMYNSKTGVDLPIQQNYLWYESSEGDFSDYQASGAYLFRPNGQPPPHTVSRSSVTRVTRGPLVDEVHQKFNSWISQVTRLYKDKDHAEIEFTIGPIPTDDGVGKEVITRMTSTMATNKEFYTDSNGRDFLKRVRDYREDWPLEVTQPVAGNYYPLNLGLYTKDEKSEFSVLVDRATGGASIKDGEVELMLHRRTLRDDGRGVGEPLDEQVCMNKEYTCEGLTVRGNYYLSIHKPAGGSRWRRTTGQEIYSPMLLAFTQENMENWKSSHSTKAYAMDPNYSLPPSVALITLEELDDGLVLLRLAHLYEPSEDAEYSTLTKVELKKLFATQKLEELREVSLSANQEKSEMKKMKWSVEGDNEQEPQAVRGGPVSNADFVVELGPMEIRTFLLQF

Bos taurus [12] = species: Bos taurus; assay: Inhibition of bovine kidney alpha-fucosidase at 0.120 uM using p-nitrophenyl glycopyranoside as substrate preincubated for 5 mins followed by substrate addition and measured after 20 mins by visible absorption spectroscopic analysis
Oryza sativa = assay: Inhibition of rice beta-glucosidase at 0.1 mM using p-nitrophenyl glycopyranoside as substrate preincubated for 5 mins followed by substrate addition and measured after 20 mins by visible absorption spectroscopic analysis
[13] = Inhibition of bovine kidney alpha-fucosidase at 0.1 mM using p-nitrophenyl glycopyranoside as substrate preincubated for 5 mins followed by substrate addition and measured after 20 mins by visible absorption spectroscopic analysis relative to control; parameters: species or system Bos taurus
Beta-galactosidase [14] = biological target: T3, Beta-galactosidase (Bos taurus, UniProt Q58D55); assay: Competitive inhibition of bovine liver beta-galactosidase using p-nitrophenyl glycopyranoside as substrate preincubated for 5 mins followed by substrate addition and measured after 20 mins by Lineweaver-Burk plot analysis
T3 sequence (Q58D55 whole entry): T1 sequence (whole entry)

Beta-galactosidase [15] = biological target: T3, Beta-galactosidase; assay: Inhibition of bovine liver beta-galactosidase using p-nitrophenyl glycopyranoside as substrate preincubated for 5 mins followed by substrate addition and measured after 20 mins by visible absorption spectroscopic analysis
Homo sapiens = species: Homo sapiens; assay: Inhibition of human alpha-fucosidase at 0.1 mM using p-nitrophenyl glycopyranoside as substrate preincubated for 5 mins followed by substrate addition and measured after 20 mins by visible absorption spectroscopic analysis

What does the source list for `C[C@@H]1N[C@@H](c2cn(-c3ccc(S(=O)(=O)c4ccc(-n5cc([C@@H]6N[C@@H](C)[C@@H](O)[C@H]6O)nn5)cc4)cc3)nn2)[C@H](O)[C@@H]1O`?
inhibition (Bos taurus [1]): 91%; inhibition [2]: inactive; inhibition [3]: inactive; inhibition (Saccharomyces cerevisiae): inactive; inhibition (Aspergillus niger): inactive; inhibition (Canavalia ensiformis): inactive; Ki [4]: 0.52 nM; Ki [5]: 150 nM; Ki [6]: 0.15 nM; IC50 [7]: 210 nM; Ki [8]: 60 nM; inhibition (Bos taurus [9]): 96%; inhibition (Cornu aspersum): inactive; IC50 [10]: 0.48 nM; inhibition (Prunus dulcis): inactive; inhibition [11]: inactive; inhibition (Bos taurus [12]): Active; inhibition (Oryza sativa): inactive

What does the source list for `CCCCCCn1cc(CNC(=O)c2cc([C@H]3NC[C@@H](O)[C@H]3O)oc2C)nn1`?
inhibition [3]: inactive; inhibition (Saccharomyces cerevisiae): inactive; inhibition (Aspergillus niger): inactive; inhibition (Canavalia ensiformis): inactive; IC50 [13]: 37000 nM; inhibition (Cornu aspersum): inactive; Ki (Beta-galactosidase [14]): 58000 nM; IC50 (Beta-galactosidase [15]): 94000 nM; inhibition (Prunus dulcis): inactive; inhibition [11]: inactive; inhibition (Homo sapiens): inactive; inhibition (Oryza sativa): inactive
